The first data set in a line: Stability in mouse plasma. The class given is in vitro ADME. Conditions: mouse plasma; 1 h, 37° C.
Description: SDC-TRAP-0022 and SDC-TRAP-0028 were incubated in human and mouse plasma for 2 h at 37° C. and assayed for integrity at 0.25, 0.5, 1 and 2 h. The values reported below are the remaining of the parent compound at the end of the 2 h incubation period.
This solution was used to precipitate all plasma samples in the study. 200 μL was pipetted into a 96 deepwell plate over dry ice. 10 μL of 1 mM stock in DMSO was added to a 1.5 mL microfuge tube, then 990 μL of plasma. Samples were mixed by vortex, then 50 μL of each sample was added in triplicate to a 96-well plate containing internal standard solution. This was designated the 0 hour time point sample. 250 μL of the remaining plasma sample was added to each of four 96 deepwell plates—one per time point. Samples were incubated at 37° C. with gentle shaking for 0.25, 0.5, and 1 hour. After each time point, one plate of each sample was removed from the shaker and placed on wet ice for approximately 2 minutes. 50 μL plasma aliquots (in triplicate) were added to the deepwell plate containing internal standard solution. After the last time point was extracted, the 96 deepwell plate was vortexed, then centrifuged at 2-8° C. 150 μL of supernatant was collected and 25 μL of water was added. Samples were mixed and analyzed by LC-MS/MS.
The stability of seven SDC-TRAP types in mouse plasma was measured as follows. 990 μL mouse plasma aliquots from a common stock were spiked with 10 μL of 1 mM stock of one of seven SDC-TRAP samples identified in the table below. Each sample was mixed and divided into 250 μL aliquots, each representing time points 0, 15 minutes, 30 minutes or 1 hour. At the prescribed time point, 3×50 μL samples were each mixed with 200 μL of methanol containing internal standard and held on dry ice until all time point samples were extracted. The samples collectively were vortex mixed for 1.5 minutes at 1500 rpm, then centrifuged at 4400 rpm for 10 minutes at 8° C.
For the molecule `CCc1c2c(nc3ccc(O)cc13)-c1cc3c(c(=O)n1C2)COC(=O)C3(CC)OC(=O)N(C)CCOCCn1ccc2cc(-n3c(O)nnc3-c3cc(C(C)C)c(O)cc3O)ccc21` (stereo not shown) [SDC-TRAP-0037, 4,11-diethyl-9-hydroxy-3,14-dioxo-3,4,12,14-tetrahydro-1H-pyrano[3′,4′:6,7]indolizino[1,2-b]quinolin-4-yl (2-(2-(5-(3-(2,4-dihydroxy-5-isopropylphenyl)-5-hydroxy-4H-1,2,4-triazol-4-yl)-1H-indol-1-yl)ethoxy)ethyl)(methyl)carbamate], the “% Remaining” value was 95%.
Same read-out and setting: the result for `CCc1c2c(nc3ccc(OC(=O)N(C)CCCCN4CCN(Cc5ccc(-n6c(O)nnc6-c6cc(C(C)C)c(O)cc6O)cc5)CC4)cc13)-c1cc3c(c(=O)n1C2)COC(=O)C3(O)CC` (stereo not shown) [SDC-TRAP-0044, 4,11-diethyl-4-hydroxy-3,14-dioxo-3,4,12,14-tetrahydro-1H-pyrano[3′,4′:6,7]indolizino[1,2-b]quinolin-9-yl (4-(4-(4-(3-(2,4-dihydroxy-5-isopropylphenyl)-5-hydroxy-4H-1,2,4-triazol-4-yl)benzyl)piperazin-1-yl)butyl)(methyl)carbamate] reads 61%; that for `CCNC(=O)c1nnc(-c2cc(C(C)C)c(O)cc2O)n1-c1ccc(OC2CCN(C(=O)[C@@H]3CCCN3C(=O)Oc3ccc4nc5c(c(CC)c4c3)Cn3c-5cc4c(c3=O)COC(=O)[C@]4(O)CC)CC2)cc1` [SDC-TRAP-0209], 67.1%; that for `CCc1c2c(nc3ccc(OC(=O)N(C)CCn4ccc5cc(-n6c(O)nnc6-c6cc(C(C)C)c(O)cc6O)ccc54)cc13)-c1cc3c(c(=O)n1C2)COC(=O)C3(O)CC` (stereo not shown) [SDC-TRAP-0022, 4,11-diethyl-4-hydroxy-3,14-dioxo-3,4,12,14-tetrahydro-1H-pyrano[3′,4′:6,7]indolizino[1,2-b]quinolin-9-yl (2-(5-(3-(2,4-dihydroxy-5-isopropylphenyl)-5-hydroxy-4H-1,2,4-triazol-4-yl)-1H-indol-1-yl)ethyl)(methyl)carbamate], 21%.

Staying with this data set, now noted: mouse, plasma, 1 h, 10 μM.
As for `CCNC(=O)c1nnc(-c2cc(C(C)C)c(O)cc2O)n1-c1ccc(CN2CCC(C(=O)N3CCC[C@H]3C(=O)Nc3cccc4c3CN(C3CCC(=O)NC3=O)C4=O)CC2)cc1` (stereo partly drawn) [SDC-TRAP-0164, 5-(2,4-dihydroxy-5-isopropylphenyl)-4-(4-((4-((2S)-2-((2-(2,6-dioxopiperidin-3-yl)-1-oxoisoindolin-4-yl)carbamoyl)pyrrolidine-1-carbonyl)piperidin-1-yl)methyl)phenyl)-N-ethyl-4H-1,2,4-triazole-3-carboxamide], the “% Remaining” value is 98.0%.
`CCNC(=O)c1nnc(-c2cc(C(C)C)c(O)cc2O)n1-c1ccc(CN2CCC(C(=O)N[C@H](C(=O)Nc3cccc4c3CN(C3CCC(=O)NC3=O)C4=O)C(C)C)CC2)cc1` (stereo partly drawn) [SDC-TRAP-0163, 1-(4-(3-(2,4-dihydroxy-5-isopropylphenyl)-5-(ethylcarbamoyl)-4H-1,2,4-triazol-4-yl)benzyl)-N-((2S)-1-((2-(2,6-dioxopiperidin-3-yl)-1-oxoisoindolin-4-yl)amino)-3-methyl-1-oxobutan-2-yl)piperidine-4-carboxamide]: the “% Remaining” value was found to be 93.0%.
For the molecule `CCNC(=O)c1nnc(-c2cc(C(C)C)c(O)cc2O)n1-c1ccc(C(=O)N2CCN(c3cc(C)c(OC(=O)Nc4cccc5c4CN(C4CCC(=O)NC4=O)C5=O)c(C)c3)CC2)cc1` (stereo not shown) [SDC-TRAP-0178, 4-(4-(4-(3-(2,4-dihydroxy-5-isopropylphenyl)-5-(ethylcarbamoyl)-4H-1,2,4-triazol-4-yl)benzoyl)piperazin-1-yl)-2,6-dimethylphenyl (2-(2,6-dioxopiperidin-3-yl)-1-oxoisoindolin-4-yl)carbamate], the “% Remaining” value is listed as 82.0%.

Values taken from patent publication US10675360B2 (MADRIGAL PHARMACEUTICALS, INC., priority 2014, dated 2020).
